These results are taken from PubChem BioAssay (NCI).

Assay in all cases: inhibition of tumour cell growth, NCI panel, 48 h
Assay [1] relates to HCC-2998 colon.
In assay [2] the test system is NCI-H226 lung.
The subject of assay [3] is SF-295 CNS.
The test system of assay [4] is A549 NSCLC.
The test system of assay [5] is NCI/ADR-RES ovarian.
In assay [6] the test system is SF-539 CNS.
The test system of assay [7] is SR leukemia.
Assay [8] relates to KM12 colon.
The test system of assay [9] is SN12C renal.
Assay [10] concerns CCRF-CEM leukemia.
Assay [11] relates to NCI-H460 lung.
Assay [12] deals with U251 CNS.
In assay [13] the test system is SK-OV-3 ovarian.
The subject of assay [14] is EKVX NSCLC.
Assay [15] concerns RPMI-8226 leukemia.
Assay [16] concerns SK-MEL-2 melanoma.
Assay [17] relates to A498 renal.

Molecules are shown by their SMILES.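 Protocol summary: plate cells (96-well), add compound at 5 concentrations, incubate 48 h, interpolate endpoints linearly. TGI denotes the concentration required for complete inhibition of growth.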 Where a SMILES comes first, the peptide text is derived from it.

For `O=C(O)Cc1cccc2c1OC(c1ccccc1)C(C(=O)c1ccccc1)C2=O` (centres undefined), the TGI is 59.7 µM in assay [1]; greater than 100 µM in assay [2]; greater than 100 µM in assay [3]; greater than 100 µM in assay [4]; greater than 100 µM in assay [5]; greater than 100 µM in assay [6]. Moreover, the TGI in assay [7], in assay [8], in [9], in assay [10], in [11] and in assay [12] was greater than 100 µM throughout. Besides, the TGI in assay [13], in [14] and in assay [15] was greater than 100 µM throughout.

As to `Nc1nc(Cl)cc(NCC2(CO)CCC(O)C2)n1` (centres undefined), the TGI in assay [2], in assay [3], in assay [4], in assay [5], in [6] and in assay [7] was greater than 100 µM each time. For the same molecule, the TGI in [16], in assay [8], in assay [9], in assay [10], in [11] and in assay [12] was greater than 100 µM in each case. The TGI in assay [13], in assay [17], in assay [14] and in assay [15] was greater than 100 µM in each case.

On to `CC(=O)NC(CS)C(=O)NC(CO)C(=O)NC(CO)C(=O)NC(Cc1c[nH]c2ccccc12)C(=O)N1CCCC1C(=O)NC(CO)C(=O)NC(Cc1c[nH]c2ccccc12)C(=O)NC(Cc1c[nH]cn1)C(=O)NC(CO)C(=O)NC(Cc1c[nH]c2ccccc12)C(=O)NCC(=O)NCC(=O)NC(CC(=O)O)C(=O)NC(CCC(N)=O)C(=O)NC(CCCCN)C(=O)NC(Cc1ccccc1)C(=O)NC(CCCNC(=N)N)C(=O)NC(CCCCN)C(N)=O` (centres undefined) (Ac-CSSWPSWHSWGGDQKFRK-NH2; configuration not given here), for which the TGI in assay [2], in assay [3], in assay [4], in [5], in assay [6] and in assay [7] was greater than 25 µM in each case. Besides, the TGI in assay [16], in [8], in assay [9], in assay [10], in assay [11] and in [12] was greater than 25 µM each time. The TGI in assay [13], in assay [17], in assay [14] and in assay [15] was greater than 25 µM throughout.

For `Cc1cc2c(cc1C)C(=O)C1(C2)Cc2c(ccc(C)c2C)C1=O` (centres undefined), the TGI in assay [1], in [2], in assay [3], in [4], in assay [5] and in [6] was greater than 100 µM throughout. Moreover, the TGI in [7], in assay [16], in assay [8], in assay [9], in assay [10] and in assay [11] was greater than 100 µM each time. The TGI in assay [12], in assay [14] and in assay [15] was greater than 100 µM each time.

Regarding `O=C(Nc1nnc(-c2c(Cl)c(Cl)c(Cl)c(Cl)c2-c2nc3cc(C(=O)c4ccccc4)ccc3[nH]2)o1)c1ccccc1`, the TGI in assay [2] amounted to 35.5 µM; in [3], 24.3 µM; in assay [4] it was 31.9 µM; in assay [5], 33.3 µM; in assay [6], 23.7 µM; in [7], 20.9 µM. Moreover, the TGI in assay [16] is 51.4 µM; in assay [8], greater than 100 µM; in assay [9], 31.3 µM; in assay [10], 20.8 µM; in assay [12], 26.5 µM; in assay [13] it was 52.2 µM. The results for the TGI in [17], in [14] and in assay [15] were 49.6 µM, 38.7 µM and 30.4 µM, respectively.

Take `COc1ccccc1N1C(=O)CS(=O)(=O)C1c1cccc(Oc2ccccc2)c1` (centres undefined): the TGI in [2] stood at 31.8 µM; in [3], 38.2 µM; in assay [4], 40.5 µM; in assay [5] it was 40 µM; in assay [6] it was 32.6 µM; in assay [7], 28.2 µM. For the same molecule, the TGI was 27.1 µM in assay [16]; 61.7 µM in [8]; 33.1 µM in assay [9]; greater than 100 µM in assay [10]; 29.4 µM in [11]; 29.7 µM in [12]. Further, the TGI in assay [13] came out at 73.5 µM; in assay [17], 34.6 µM; in assay [14] it was 42.6 µM.

As for `CC1(c2nc3ccccc3[nH]2)CCC(C(N)=O)C(C)(C)O1` (centres undefined), the TGI in assay [1], in assay [2], in assay [3], in assay [4], in assay [5] and in [6] was greater than 100 µM each time. The TGI in assay [7], in [16], in assay [8], in assay [9], in assay [10] and in assay [12] was greater than 100 µM each time. The TGI in [13], in assay [14] and in assay [15] was greater than 100 µM in each case.

In the case of `CCOC(=O)CCC(C(=O)OCC)n1nnc2ccc(Nc3c(C)[n+]([O-])c4cc(Cl)ccc4[n+]3[O-])cc21` (centres undefined), the TGI in [1] is 49.7 µM; in [2], 81.5 µM; in assay [3], greater than 100 µM; in assay [4], greater than 100 µM; in assay [5] it was greater than 100 µM; in [6], 39.9 µM. Further, the TGI was greater than 100 µM in assay [7]; 57 µM in assay [16]; 86.7 µM in assay [8]; 66.9 µM in [9]; greater than 100 µM in assay [10]; greater than 100 µM in assay [11]. Also, the TGI in [12] was greater than 100 µM; in assay [13], greater than 100 µM; in assay [14], greater than 100 µM; in assay [15], 47 µM.

Consider `O=C1c2cscc2C(=O)C1(O)O`, for which the TGI is greater than 100 µM in [2]; greater than 100 µM in [3]; greater than 100 µM in [4]; greater than 100 µM in [5]; greater than 100 µM in assay [6]; 49.3 µM in [7]. Besides, the TGI in assay [16] was greater than 100 µM; in assay [8], greater than 100 µM; in assay [9], 36.3 µM; in assay [10], 52.9 µM; in [11], greater than 100 µM; in assay [12] it was greater than 100 µM. Further, the TGI in assay [13], in assay [17], in assay [14] and in assay [15] was greater than 100 µM each time.

With `COc1cc(S(=O)(=O)Nc2nc(-c3ccc(N)cc3)cs2)ccc1Cl`, the TGI in assay [2], in [3], in [4], in assay [5], in assay [6] and in assay [7] was greater than 100 µM throughout. Moreover, the TGI in assay [16], in assay [8], in [9], in assay [10], in assay [11] and in assay [12] was greater than 100 µM in each case. Moreover, the TGI in assay [13], in assay [17] and in assay [14] was greater than 100 µM throughout.

Consider `COCOCC1CCCN1CN1CCC[C@H]1COCOC` (some centres undefined), for which the TGI in assay [2], in assay [3], in assay [4], in assay [5], in [7] and in assay [16] was greater than 100 µM each time. The TGI in [8], in assay [9], in [10], in assay [11], in assay [12] and in [13] was greater than 100 µM throughout. Further, the TGI was greater than 100 µM in assay [17], greater than 100 µM in [14] and 99.5 µM in [15].

With `CO[C@@H]1C=C[C@@]23c4cc5c(cc4C(O)N(CC2O)C3C1)OCO5` (some centres undefined), the TGI in assay [2] is greater than 100 µM; in assay [3], 64.1 µM; in assay [4], 39.5 µM; in assay [5], 75.1 µM; in assay [6], greater than 100 µM; in [7] it was greater than 100 µM. The TGI in [16] is 9.09 µM; in [8], 17 µM; in assay [9], greater than 100 µM; in assay [10], 5.38 µM; in assay [11], 12.9 µM; in assay [12], 16.6 µM. Besides, the TGI in [13] is greater than 100 µM; in assay [17] it was 7.68 µM; in assay [14], 33.3 µM; in assay [15], greater than 100 µM.

Take `CC(C)c1c(O[Si](C(C)C)(C(C)C)C(C)C)c2c3c(ccc4c3c1OC4(C)C)C(C)CC2` (centres undefined): the TGI in assay [2], in assay [3], in [4], in [5], in assay [6] and in [7] was greater than 100 µM each time. Besides, the TGI in assay [16], in assay [8], in assay [9], in assay [10], in assay [11] and in assay [12] was greater than 100 µM each time. The TGI in assay [13], in [17], in assay [14] and in assay [15] was greater than 100 µM throughout.

Turning to `Nc1ccc(Nc2c3ccccc3nc3ccccc23)cc1`, the TGI was greater than 10 µM in assay [1]; 7.52 µM in [2]; greater than 10 µM in assay [3]; greater than 10 µM in assay [4]; greater than 10 µM in assay [5]; greater than 10 µM in assay [6]. For the same molecule, the TGI in assay [7] was greater than 10 µM; in assay [16] it was greater than 10 µM; in assay [8], greater than 10 µM; in assay [9], greater than 10 µM; in assay [10], 6.19 µM; in assay [11], 8.07 µM. Further, the TGI in [12], in assay [13], in assay [14] and in assay [15] was greater than 10 µM throughout.

In the case of `C[C@]12CC[C@H](O)C=C1CC[C@@H]1[C@@H]2CC[C@]2(C)C(=N/O)/C(=C/c3ccncc3)C[C@@H]12`, the TGI was 12.5 µM in assay [1]; 25.3 µM in assay [2]; 39.5 µM in assay [3]; 29.8 µM in [4]; 96.8 µM in assay [5]; 27.3 µM in assay [6]. The TGI in assay [7] was 16.2 µM; in [16], 22.6 µM; in assay [8], greater than 100 µM; in assay [9], 32.8 µM; in [10], 32.9 µM; in [11], 30.7 µM. Moreover, the TGI in [12] was 19.6 µM; in assay [13] it was 34.9 µM; in assay [14], greater than 100 µM; in assay [15], 19.9 µM.

Consider `CCCN(CCC)c1cc2c(cc1F)c(=O)c(C(=O)O)cn2-c1ccc(N2CCN(C)CC2)cn1`, for which the TGI in assay [2] is 31.1 µM; in [3], 33.6 µM; in assay [4], 34 µM; in assay [5] it was 35.9 µM; in assay [6] it was 32.6 µM; in assay [7], 35.9 µM. For the same molecule, the TGI is 30.3 µM in assay [8]; 46 µM in assay [9]; 36.7 µM in [10]; 36.5 µM in [11]; greater than 100 µM in [12]; 28.5 µM in assay [13]. For the same molecule, the results for the TGI in [17], in assay [14] and in assay [15] were 49.2 µM, 34.2 µM and 40.4 µM, respectively.

Turning to `CC(=O)c1nc2ccccc2n1CC(=O)c1ccc(Cl)cc1`, the TGI is greater than 100 µM in assay [2]; 43.7 µM in [3]; 32.4 µM in assay [4]; 22.2 µM in assay [5]; greater than 100 µM in [6]; greater than 100 µM in assay [7]. Also, the TGI in [16] is 78.1 µM; in assay [8], greater than 100 µM; in assay [9] it was greater than 100 µM; in assay [10], greater than 100 µM; in assay [11], 22.5 µM; in [12], greater than 100 µM. For the same molecule, the TGI in assay [13], in assay [17], in [14] and in [15] was greater than 100 µM in each case.
